# Measurements from patent publication US20120252748A1, “METHODS AND COMPOSITIONS FOR DETERMINING THE RESPONSIVENESS OF CANCER THERAPEUTICS” (New York University, priority 2011, published 2012).
# Entries after “also recorded” stand apart in the source; their conditions may differ. Like-named read-outs stand apart in the source and are kept apart here.
# Legend:
# MDA-MB-231 cells = experiment: Effect of triacsin C on relative cell number of MDA-MB-231 control and ACSL4 knockdown cells; type: cell-based, human; settings: for IC50: FIG. 7C, read-out: half-maximal inhibitory concentration
# Experimental: Relative differences in cell number were quantitated using the Cell Titer 96 AQueous Reagent purchased from Promega (Madison, Wis.). Protocols used were as described by the manufacturer.
# MDA-MB-231 cells were treated for 48 hours with either a control or ACSL4-specific siRNA. The siRNA was a SmartPool siRNA obtained from Dharmacon, consisting of 4 separate siRNAs.
# Next, the effect of triacsin C treatment on MDA-MB-231 control and knockdown cells were compared. […] Mashima et al., Cancer Sci., 100: 1556-1562 (2009).
# ACSL1 = biological target: T1, ACSL1 (Rattus norvegicus, UniProt P18163); settings: cited from earlier work
# T1 sequence (P18163 1-699): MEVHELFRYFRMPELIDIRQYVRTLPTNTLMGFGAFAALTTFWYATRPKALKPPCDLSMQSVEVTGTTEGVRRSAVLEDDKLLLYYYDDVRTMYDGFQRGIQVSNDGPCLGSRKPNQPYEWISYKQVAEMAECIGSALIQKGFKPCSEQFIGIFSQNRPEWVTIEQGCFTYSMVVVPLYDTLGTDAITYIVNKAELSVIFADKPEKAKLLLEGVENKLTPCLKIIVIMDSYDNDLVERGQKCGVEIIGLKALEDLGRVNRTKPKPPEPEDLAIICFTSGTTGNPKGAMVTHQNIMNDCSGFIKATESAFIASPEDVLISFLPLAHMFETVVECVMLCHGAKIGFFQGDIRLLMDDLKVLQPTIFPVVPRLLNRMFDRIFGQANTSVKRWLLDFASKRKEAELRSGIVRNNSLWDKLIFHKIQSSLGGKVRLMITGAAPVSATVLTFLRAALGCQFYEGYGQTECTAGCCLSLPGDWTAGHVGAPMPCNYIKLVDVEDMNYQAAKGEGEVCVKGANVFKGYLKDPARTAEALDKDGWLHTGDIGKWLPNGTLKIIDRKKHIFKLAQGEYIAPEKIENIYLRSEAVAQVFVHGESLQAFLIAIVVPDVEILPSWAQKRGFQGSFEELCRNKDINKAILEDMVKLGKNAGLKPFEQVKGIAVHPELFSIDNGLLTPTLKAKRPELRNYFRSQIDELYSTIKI
# ACSL3 = ACSL3 (Rattus norvegicus, UniProt Q63151); settings: Van Horn et al. 2005; cited from earlier work
# Chain of ACSL3 (Q63151 whole entry): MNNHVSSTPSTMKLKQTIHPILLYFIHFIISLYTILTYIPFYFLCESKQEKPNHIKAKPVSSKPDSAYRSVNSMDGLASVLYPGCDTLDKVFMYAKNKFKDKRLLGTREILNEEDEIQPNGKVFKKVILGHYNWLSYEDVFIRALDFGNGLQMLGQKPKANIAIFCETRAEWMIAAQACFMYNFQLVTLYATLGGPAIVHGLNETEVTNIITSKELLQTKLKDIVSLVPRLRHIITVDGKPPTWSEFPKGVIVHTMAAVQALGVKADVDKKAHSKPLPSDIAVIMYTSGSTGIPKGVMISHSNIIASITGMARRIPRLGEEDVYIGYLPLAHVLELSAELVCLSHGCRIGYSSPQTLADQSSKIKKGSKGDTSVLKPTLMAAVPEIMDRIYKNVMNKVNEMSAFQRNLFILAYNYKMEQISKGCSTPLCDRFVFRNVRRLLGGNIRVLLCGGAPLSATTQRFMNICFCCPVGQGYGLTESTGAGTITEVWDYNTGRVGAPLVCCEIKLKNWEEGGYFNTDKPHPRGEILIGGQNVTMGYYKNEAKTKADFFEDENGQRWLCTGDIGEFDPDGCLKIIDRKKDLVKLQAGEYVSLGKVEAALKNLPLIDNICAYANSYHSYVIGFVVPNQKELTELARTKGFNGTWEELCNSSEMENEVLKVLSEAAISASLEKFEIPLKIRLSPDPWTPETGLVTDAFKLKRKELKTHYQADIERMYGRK
# ACSL4 = ACSL4 (Rattus norvegicus, UniProt O35547); settings: cited from earlier work
# Chain of ACSL4 (O35547 whole entry): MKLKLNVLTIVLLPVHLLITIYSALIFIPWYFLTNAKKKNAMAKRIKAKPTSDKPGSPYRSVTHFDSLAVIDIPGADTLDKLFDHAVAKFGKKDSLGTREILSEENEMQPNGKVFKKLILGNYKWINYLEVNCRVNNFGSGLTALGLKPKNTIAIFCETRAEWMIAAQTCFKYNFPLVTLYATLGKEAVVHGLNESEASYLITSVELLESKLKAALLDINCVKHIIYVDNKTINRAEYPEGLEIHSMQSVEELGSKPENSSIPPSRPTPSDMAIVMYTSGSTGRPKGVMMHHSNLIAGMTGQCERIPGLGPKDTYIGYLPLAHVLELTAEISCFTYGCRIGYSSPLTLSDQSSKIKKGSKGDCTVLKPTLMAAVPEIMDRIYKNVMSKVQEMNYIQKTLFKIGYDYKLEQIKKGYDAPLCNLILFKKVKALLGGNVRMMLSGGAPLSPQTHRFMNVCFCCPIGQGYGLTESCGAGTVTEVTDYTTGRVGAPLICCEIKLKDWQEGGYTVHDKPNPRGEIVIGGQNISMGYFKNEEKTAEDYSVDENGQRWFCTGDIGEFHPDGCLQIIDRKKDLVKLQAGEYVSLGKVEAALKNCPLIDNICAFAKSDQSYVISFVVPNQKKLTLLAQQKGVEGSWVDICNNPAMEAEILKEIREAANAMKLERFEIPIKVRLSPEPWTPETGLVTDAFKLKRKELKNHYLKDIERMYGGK
# ACSL5 = biological target: T2, ACSL5 (Rattus norvegicus, UniProt O88813); settings: Van Horn et al. 2005; cited from earlier work
# T2 sequence (O88813 1-683): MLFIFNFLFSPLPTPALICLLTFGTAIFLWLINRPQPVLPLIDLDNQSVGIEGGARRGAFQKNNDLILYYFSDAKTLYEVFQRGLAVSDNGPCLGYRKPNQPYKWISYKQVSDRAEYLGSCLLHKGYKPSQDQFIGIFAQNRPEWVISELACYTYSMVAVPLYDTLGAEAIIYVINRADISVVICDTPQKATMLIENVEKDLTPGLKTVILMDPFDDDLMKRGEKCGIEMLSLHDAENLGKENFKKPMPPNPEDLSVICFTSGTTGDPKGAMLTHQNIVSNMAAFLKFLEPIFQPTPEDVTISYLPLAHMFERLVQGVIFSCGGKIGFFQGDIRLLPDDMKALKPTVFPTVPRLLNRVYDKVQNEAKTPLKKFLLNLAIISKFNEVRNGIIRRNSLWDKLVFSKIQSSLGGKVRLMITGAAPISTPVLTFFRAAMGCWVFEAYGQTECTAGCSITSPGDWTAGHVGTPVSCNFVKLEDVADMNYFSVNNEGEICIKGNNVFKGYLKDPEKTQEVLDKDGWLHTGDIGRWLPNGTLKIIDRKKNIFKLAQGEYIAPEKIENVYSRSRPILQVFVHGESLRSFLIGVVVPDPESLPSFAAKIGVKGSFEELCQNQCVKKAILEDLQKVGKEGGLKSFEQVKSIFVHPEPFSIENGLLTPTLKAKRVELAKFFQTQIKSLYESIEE
# ACSL6 = settings: Van Horn et al. 2005; cited from earlier work
# [1] = system: a variety of cancer cells; settings: Mashima et al. 2009; cited from earlier work
# MDA-MB-415 cells = experiment: Growth response to estrogen, MDA-MB-415 cells; type: cell-based, human; settings: MDA-MB-415 (ER-positive, ACSL4-positive), versus control without estrogen, FIG. 5
# Experimental: (§1) As indicated above in the results of Example 2, two cell lines which were ER-positive where also ACSL4-positive. A study comparing cell growth in the presence of estrogen of one of these cell lines (MDA-MB-415) to a cell line which is ER-positive and ACSL4 negative (MCF-7) was performed.
# MCF-7 cells = experiment: Growth response to estrogen, MCF-7 cells; type: cell-based, human; settings: MCF-7 (ER-positive, ACSL4-negative), versus estrogen-free control, FIG. 5, FIG. 6A
# Experimental: as §1
# (§2) Additionally, a study was performed in which cell growth in the presence of estrogen of the estrogen dependent MCF-7 cells, which are ACSL4 negative, were compared to modified MCF-7 cells, which were induced to express ACSL4.
# [2] = system: MCF-7 cells genetically manipulated to express ACSL4; experiment: Growth response to estrogen, MCF-7 cells genetically manipulated to express ACSL4; type: cell-based, human; settings: MCF-7 expressing ACSL4, versus estrogen-free conditions, FIG. 6B
# Experimental: as §2
# (§3) An analysis was performed on breast cancer cell lines that are hormone receptor positive and positive for ACSL4 expression. […] In the present study, estrogen responsive MCF-7 cells, which are ACSL4-negative, were forced to express […]. […] The results were confirmed using conditional and stable transfection techniques.
# [3] = system: MCF-7 cells forced to express ACSL4; experiment: Tamoxifen sensitivity of MCF-7 cells forced to express ACSL4; type: cell-based, human; settings: forced ACSL4 expression in MCF-7, FIG. 16
# Experimental: as §3
compound,measurement,setting,value
CCC/C=C/C/C=C/C=C/C=N/NN=O [triacsin C],increase in triacsin C sensitivity on ablation of ACSL4,MDA-MB-231 cells; ACSL4 knockdown versus control MDA-MB-231 cells,three-fold increase
same,IC50,MDA-MB-231 cells; MDA-MB-231 ACSL4 knockdown cells (ACSL4-siRNA),560 nM
same,IC50,MDA-MB-231 cells; MDA-MB-231 control cells (control siRNA),1590 nM
same,inhibition of ACSL1,ACSL1; Van Horn et al. 2005,specific for inhibition
same,relative sensitivity by reported half-maximal inhibitory concentration values,"ACSL1; ranking among ACSL1, 3 and 4",most sensitive
same,inhibition of ACSL3,ACSL3,specific for inhibition
same,inhibition of ACSL4,ACSL4; Van Horn et al. 2005,specific for inhibition
same,relative sensitivity by reported half-maximal inhibitory concentration values,"ACSL4; ranking among ACSL1, 3 and 4",least sensitive
same,effect on the activity of ACSL5,ACSL5,little or no effect
same,effect on the activity of ACSL6,ACSL6,little or no effect
same,apoptosis of cancer cells,[1],induce apoptosis
same,proliferation of cancer cells,[1],inhibit proliferation
estrogen,growth response to estrogen,MDA-MB-415 cells,no significant growth response; also recorded: no increase in cellular proliferation
same,growth response to estrogen,MCF-7 cells,significant growth response; also recorded: proliferative growth effect
same,growth response to estrogen,[2],became unresponsive to the proliferative effect; also recorded: loss of responsiveness
CC/C(=C(\c1ccccc1)c1ccc(OCCN(C)C)cc1)c1ccccc1 [tamoxifen],sensitivity to tamoxifen treatment,[3],decrease in the sensitivity
